Values belong to the compound of their own block, whether it stands above or below them. The source made the active and inactive calls.
Assays:
[1] = biological target: Induced myeloid leukemia cell differentiation protein Mcl-1 (Homo sapiens, UniProt Q07820); format: functional
[2] = biological target: T1, Polyadenylate-binding protein 1 (Homo sapiens, UniProt P11940); assay: PABP1 MLLE–PAM2 interaction inhibitors, dose response, miRNA deadenylation inhibitor project, biochemical, fluorescence polarization, Cy5-PAM2 peptide, secondary (AID 602260); format: functional; details: read-out: IC50_Mean
T1 sequence (P11940 whole entry): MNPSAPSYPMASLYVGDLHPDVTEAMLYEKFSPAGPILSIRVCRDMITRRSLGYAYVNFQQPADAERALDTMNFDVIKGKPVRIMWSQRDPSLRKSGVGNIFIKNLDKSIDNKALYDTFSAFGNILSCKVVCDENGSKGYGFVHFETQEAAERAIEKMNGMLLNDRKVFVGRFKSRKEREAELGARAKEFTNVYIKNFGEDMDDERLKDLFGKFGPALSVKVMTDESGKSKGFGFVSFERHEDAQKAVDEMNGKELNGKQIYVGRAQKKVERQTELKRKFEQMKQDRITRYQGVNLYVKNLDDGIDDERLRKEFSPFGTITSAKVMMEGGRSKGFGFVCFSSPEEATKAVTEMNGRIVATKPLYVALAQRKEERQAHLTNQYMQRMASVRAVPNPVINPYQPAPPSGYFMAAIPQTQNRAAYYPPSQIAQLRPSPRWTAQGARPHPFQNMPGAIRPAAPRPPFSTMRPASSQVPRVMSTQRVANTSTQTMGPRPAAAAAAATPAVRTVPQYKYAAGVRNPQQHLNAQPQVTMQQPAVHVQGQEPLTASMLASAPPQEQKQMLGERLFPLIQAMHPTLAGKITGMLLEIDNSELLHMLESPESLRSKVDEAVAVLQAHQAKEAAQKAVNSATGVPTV

[3] = biological target: T1, Polyadenylate-binding protein 1; assay: PABP1 MLLE–PAM2 binding inhibitor potency, dose response, biochemical, fluorescence polarization, FITC-PAM2 peptide (AID 602259); format: functional; details: read-out: IC50_Mean
[4] = biological target: T2, Rac GTPase-activating protein 1 (Homo sapiens, UniProt Q9H0H5); assay: MgcRacGAP GTPase-activating activity inhibitors, confirmation, biochemical, ADP Hunter fluorescence, primary and confirmatory (AID 624330); format: functional
T2 sequence (Q9H0H5 whole entry): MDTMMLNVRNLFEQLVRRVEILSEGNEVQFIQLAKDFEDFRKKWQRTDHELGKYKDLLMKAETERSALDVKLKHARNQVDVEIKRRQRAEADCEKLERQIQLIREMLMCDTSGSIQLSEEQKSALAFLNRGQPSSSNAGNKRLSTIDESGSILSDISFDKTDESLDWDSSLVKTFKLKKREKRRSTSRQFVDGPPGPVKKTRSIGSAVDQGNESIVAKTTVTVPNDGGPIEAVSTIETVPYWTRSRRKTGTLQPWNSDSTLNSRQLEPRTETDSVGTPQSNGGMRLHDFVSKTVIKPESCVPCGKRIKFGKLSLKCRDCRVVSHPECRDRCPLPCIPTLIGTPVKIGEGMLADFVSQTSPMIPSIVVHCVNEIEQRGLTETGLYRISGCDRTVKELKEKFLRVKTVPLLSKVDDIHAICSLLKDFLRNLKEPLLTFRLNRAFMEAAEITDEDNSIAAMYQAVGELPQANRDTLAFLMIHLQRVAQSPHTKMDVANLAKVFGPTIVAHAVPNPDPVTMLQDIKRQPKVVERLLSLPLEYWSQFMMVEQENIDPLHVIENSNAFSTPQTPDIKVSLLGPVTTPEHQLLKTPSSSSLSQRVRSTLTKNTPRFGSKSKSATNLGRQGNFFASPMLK

[5] = Artemis endonuclease inhibitor potency, dose response, biochemical, fluorescence intensity (AID 720701); format: functional;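 note: Artemis endonuclease enzyme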
[6] = biological target: Glutathione-S-transferase (Schistosoma japonicum, UniProt Q26513); assay: biotin-GST/anti-GST TR-FRET signal inhibitors, dose response, artefact control for Vif-APOBEC3G degradation inhibitor project, biochemical (AID 1117362); format: functional
Sequence of Glutathione-S-transferase (Q26513 whole entry): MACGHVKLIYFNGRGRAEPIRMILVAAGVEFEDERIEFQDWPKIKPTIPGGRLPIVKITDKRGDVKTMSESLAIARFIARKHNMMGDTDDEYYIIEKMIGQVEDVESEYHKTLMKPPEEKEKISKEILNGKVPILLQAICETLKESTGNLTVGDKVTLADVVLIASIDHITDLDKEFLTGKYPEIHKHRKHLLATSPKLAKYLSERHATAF

[7] = biological target: T3, Calpain-2 catalytic subunit (Sus scrofa, UniProt P43367); assay: pig calpain II inhibitor potency, dose response, biochemical, fluorogenic peptide substrate (AID 1420); format: functional
T3 sequence (P43367 whole entry): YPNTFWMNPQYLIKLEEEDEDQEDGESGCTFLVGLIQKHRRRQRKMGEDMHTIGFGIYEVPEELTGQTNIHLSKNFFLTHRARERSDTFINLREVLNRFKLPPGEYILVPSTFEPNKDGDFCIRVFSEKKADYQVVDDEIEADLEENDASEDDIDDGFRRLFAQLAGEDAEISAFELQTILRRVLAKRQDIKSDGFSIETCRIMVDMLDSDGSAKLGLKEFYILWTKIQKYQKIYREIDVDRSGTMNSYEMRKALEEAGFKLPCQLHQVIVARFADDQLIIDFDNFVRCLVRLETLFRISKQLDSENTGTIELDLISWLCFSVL

[8] = Vero cell cytotoxicity, dose response, cytotoxicity control for Vif-APOBEC3G degradation inhibitor project, Vero cells (AID 1117358); format: functional; details: Human immunodeficiency virus 1, Vero
[9] = test system: Vero; assay: host cell cytotoxicity of antiviral hits, dose response, cytotoxicity control for West Nile virus antiviral project, secondary assay (AID 1650); format: functional; details: Chlorocebus sabaeus
[10] = test system: HEK293; assay: cells; format: functional, cell-based; details: Homo sapiens
[11] = biological target: T4, Nuclear receptor subfamily 0 group B member 1 (Homo sapiens, UniProt P51843); assay: Luminescence-based cell-based high throughput dose response assay for inhibitors of the orphan nuclear receptor subfamily 0, group B, member 1 (DAX1; NR0B1). [Related pubchem assays (depositor defined):AID504766, AID504790]; format: functional
T4 sequence (P51843 whole entry): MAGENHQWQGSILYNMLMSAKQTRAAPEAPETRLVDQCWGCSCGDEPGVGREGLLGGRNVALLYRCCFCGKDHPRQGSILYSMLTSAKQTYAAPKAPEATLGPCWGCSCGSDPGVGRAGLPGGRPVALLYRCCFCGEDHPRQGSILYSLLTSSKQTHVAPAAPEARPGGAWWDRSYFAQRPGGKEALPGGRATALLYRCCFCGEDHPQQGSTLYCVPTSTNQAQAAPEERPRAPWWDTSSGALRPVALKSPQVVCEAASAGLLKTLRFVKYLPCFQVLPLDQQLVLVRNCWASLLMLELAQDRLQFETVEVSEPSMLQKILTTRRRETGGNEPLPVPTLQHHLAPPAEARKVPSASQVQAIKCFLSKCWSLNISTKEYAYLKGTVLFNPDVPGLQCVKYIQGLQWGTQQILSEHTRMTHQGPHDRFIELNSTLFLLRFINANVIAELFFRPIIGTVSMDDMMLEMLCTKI

[12] = biological target: T5, DNA repair and recombination protein RAD54-like (Homo sapiens, UniProt Q92698); assay: inhibitors of human RAD54 branch migration, confirmation, biochemical, fluorescence, cherry-picked samples, dose series (AID 651657); format: functional
T5 sequence (Q92698 whole entry): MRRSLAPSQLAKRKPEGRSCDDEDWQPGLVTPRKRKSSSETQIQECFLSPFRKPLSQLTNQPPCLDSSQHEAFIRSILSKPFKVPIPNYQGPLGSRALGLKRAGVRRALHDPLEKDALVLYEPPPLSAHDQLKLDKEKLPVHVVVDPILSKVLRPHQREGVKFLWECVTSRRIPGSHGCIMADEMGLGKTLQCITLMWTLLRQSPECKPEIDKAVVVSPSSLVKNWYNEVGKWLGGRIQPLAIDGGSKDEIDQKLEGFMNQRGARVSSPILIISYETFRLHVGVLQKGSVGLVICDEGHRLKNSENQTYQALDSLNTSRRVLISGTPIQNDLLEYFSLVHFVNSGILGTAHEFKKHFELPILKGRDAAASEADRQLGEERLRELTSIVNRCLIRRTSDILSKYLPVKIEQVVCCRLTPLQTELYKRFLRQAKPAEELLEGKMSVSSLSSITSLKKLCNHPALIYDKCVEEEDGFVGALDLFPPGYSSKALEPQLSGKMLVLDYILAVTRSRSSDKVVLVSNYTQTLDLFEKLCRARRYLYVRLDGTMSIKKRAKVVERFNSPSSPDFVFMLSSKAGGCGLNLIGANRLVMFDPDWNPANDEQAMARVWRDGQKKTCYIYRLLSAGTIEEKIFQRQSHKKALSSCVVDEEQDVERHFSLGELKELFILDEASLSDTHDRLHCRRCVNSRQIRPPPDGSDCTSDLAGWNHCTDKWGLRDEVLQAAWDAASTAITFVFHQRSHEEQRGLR

[13] = biological target: T6, DNA repair protein RAD52 homolog (Homo sapiens, UniProt P43351); format: functional, biochemical
T6 sequence (P43351 whole entry): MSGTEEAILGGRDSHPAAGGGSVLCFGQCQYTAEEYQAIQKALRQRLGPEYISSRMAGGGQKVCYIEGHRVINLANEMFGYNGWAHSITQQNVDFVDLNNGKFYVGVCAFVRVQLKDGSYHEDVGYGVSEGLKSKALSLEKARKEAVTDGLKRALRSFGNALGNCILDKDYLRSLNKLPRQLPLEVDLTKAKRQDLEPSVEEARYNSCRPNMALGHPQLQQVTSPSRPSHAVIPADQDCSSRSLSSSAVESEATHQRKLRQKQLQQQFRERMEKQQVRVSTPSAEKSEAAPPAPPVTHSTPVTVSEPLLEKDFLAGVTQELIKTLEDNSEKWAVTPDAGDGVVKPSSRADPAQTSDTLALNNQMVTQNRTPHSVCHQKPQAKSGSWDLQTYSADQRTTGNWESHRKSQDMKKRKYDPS

[14] = biological target: E3 ubiquitin-protein ligase UHRF1 (Homo sapiens, UniProt Q96T88); assay: Counterscreen for inhibitors of 5-meCpG-binding domain protein 2 (MBD2): TRFRET-based biochemical high throughput dose response assay to identify inhibitors of binding of ubiquitin-like with PHD and ring finger domains 1 (UHRF1) to methylated oligonucleotide.
Sequence of E3 ubiquitin-protein ligase UHRF1 (Q96T88 whole entry, the tested form may be a part): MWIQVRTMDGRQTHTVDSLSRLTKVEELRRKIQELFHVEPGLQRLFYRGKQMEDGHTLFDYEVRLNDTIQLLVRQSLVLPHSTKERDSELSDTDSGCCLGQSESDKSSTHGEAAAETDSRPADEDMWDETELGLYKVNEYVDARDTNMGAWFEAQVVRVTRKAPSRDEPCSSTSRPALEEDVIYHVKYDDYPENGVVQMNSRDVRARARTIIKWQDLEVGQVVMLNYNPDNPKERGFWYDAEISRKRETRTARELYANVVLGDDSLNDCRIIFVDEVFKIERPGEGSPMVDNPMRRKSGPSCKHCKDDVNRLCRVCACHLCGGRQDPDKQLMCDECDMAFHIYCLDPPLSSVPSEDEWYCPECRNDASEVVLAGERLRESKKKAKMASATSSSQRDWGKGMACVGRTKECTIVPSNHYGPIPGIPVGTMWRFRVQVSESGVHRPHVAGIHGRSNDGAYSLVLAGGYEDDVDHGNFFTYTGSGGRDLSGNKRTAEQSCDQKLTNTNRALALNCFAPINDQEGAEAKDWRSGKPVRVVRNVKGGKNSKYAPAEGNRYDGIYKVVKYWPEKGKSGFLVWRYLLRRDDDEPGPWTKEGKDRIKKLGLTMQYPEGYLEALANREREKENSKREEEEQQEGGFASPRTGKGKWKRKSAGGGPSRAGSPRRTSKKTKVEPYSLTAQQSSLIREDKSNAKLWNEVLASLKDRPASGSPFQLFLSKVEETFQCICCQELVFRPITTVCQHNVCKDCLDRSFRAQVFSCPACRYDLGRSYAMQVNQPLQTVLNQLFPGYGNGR

[15] = biological target: T7, Low molecular weight phosphotyrosine protein phosphatase (Homo sapiens, UniProt P24666); assay: LMPTP phosphatase inhibitors, dose response, biochemical, OMFP substrate, fluorescence intensity, set 2 (AID 743307); format: functional
T7 sequence (P24666 whole entry): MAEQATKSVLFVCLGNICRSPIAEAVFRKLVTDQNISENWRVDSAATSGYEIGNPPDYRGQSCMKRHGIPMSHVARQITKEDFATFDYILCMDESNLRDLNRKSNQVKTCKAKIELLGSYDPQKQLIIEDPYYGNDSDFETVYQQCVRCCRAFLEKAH

[16] = biological target: T7, Low molecular weight phosphotyrosine protein phosphatase; assay: LMPTP phosphatase inhibitors, colorimetric pNPP readout, dose response, orthogonal assay, biochemical, absorbance, pNPP substrate, LMPTP-A isoform, set 2 (AID 743308); format: functional
[17] = half-maximal inhibitory concentration for glucagon-like peptide-1 release, STC-1 cell line, dose-response (AID 1117345); format: functional, cell-based
[18] = Glucagon-like peptide 1 release potency, NCI-H716 cell line, dose-response, half-maximal inhibitory concentration (AID 1117344); format: functional, cell-based
[19] = biological target: T8, NAD-dependent protein deacylase sirtuin-5, mitochondrial (Homo sapiens, UniProt Q9NXA8); assay: SIRT5 desuccinylase inhibitors, dose response, biochemical, fluorescence imaging, cherry-pick, set 5 (AID 720591);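 note: desuccinylation of succinyl peptide AMC substrate read as fluorescence after trypsin release; potency of inhibitors that lower fluorescence and may act on trypsin instead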
T8 sequence (Q9NXA8 whole entry): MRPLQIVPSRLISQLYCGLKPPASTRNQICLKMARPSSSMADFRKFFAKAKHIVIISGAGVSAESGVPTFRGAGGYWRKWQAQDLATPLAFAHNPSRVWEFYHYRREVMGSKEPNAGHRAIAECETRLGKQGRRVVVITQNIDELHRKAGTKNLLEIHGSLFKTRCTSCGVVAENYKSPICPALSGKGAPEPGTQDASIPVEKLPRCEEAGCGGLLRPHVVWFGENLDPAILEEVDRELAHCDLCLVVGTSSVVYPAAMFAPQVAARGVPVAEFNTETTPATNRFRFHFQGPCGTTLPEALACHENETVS

[20] = biological target: T8, NAD-dependent protein deacylase sirtuin-5, mitochondrial; assay: SIRT5 deacylase inhibitors, dose response, biochemical, fluorescence imaging, cherry-pick, set 6 (AID 720597)
[21] = biological target: Phospholipase D2 (Homo sapiens, UniProt O14939); assay: PLD2 Cellular Concentration Response Study.; format: functional
Sequence of Phospholipase D2 (O14939 whole entry): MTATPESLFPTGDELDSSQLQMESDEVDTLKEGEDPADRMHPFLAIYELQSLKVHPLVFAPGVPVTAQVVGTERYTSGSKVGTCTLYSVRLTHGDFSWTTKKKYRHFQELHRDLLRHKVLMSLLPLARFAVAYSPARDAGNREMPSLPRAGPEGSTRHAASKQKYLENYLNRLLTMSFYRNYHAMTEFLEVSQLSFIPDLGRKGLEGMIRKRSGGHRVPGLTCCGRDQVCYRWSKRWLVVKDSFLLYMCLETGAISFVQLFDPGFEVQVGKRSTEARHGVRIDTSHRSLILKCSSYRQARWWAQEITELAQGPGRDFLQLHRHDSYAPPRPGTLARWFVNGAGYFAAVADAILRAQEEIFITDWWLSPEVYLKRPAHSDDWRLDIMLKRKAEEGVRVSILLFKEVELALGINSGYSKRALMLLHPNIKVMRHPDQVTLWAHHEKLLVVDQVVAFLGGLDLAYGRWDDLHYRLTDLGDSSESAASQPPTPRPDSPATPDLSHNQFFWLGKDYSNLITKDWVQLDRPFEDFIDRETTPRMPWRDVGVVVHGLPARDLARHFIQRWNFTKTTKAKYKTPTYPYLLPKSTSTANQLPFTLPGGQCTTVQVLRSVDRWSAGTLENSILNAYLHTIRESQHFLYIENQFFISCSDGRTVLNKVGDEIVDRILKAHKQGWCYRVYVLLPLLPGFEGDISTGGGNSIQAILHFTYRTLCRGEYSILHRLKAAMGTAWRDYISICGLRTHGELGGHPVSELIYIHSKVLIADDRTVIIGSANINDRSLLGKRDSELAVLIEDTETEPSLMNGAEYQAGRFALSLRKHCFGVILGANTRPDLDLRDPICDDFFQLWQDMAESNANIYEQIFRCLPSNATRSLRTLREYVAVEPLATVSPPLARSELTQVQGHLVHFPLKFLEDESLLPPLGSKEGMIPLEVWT

[22] = biological target: Phospholipase D1 (Homo sapiens, UniProt Q13393); assay: PLD1 Cellular Concentration Response Study.; format: functional
Sequence of Phospholipase D1 (Q13393 whole entry): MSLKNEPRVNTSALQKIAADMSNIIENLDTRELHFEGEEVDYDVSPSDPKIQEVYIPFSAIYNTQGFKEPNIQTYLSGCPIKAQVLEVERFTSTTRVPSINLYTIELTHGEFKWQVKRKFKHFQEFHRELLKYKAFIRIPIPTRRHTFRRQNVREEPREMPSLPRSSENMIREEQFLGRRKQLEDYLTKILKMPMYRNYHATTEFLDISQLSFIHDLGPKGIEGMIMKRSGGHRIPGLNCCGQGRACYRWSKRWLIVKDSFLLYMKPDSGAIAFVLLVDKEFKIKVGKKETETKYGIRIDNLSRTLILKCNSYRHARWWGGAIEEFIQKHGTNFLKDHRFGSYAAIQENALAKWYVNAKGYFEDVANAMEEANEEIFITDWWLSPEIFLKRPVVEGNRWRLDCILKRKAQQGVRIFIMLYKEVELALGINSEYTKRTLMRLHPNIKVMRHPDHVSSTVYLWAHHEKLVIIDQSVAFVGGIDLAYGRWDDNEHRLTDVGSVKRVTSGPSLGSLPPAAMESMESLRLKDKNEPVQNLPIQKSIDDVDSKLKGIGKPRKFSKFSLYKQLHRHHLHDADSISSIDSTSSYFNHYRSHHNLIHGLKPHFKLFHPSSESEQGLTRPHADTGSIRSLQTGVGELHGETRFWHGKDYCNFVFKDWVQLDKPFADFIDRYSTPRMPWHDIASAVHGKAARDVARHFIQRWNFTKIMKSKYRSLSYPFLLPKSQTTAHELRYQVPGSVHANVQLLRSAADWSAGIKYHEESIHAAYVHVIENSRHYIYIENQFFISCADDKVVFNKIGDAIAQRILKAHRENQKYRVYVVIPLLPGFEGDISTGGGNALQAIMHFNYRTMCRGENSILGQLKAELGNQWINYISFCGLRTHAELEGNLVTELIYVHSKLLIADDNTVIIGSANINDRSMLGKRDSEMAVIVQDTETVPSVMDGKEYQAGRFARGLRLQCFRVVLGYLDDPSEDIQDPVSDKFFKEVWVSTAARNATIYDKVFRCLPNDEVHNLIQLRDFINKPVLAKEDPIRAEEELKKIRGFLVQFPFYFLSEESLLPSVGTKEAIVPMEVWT

[23] = P. falciparum 3D7-ScDHODH growth inhibitors, dose response, SYBR Green, dry powder samples (AID 1159570); format: functional, cell-based;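 note: parasite growth measured after 72 hours of compound exposure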
[24] = P. falciparum Dd2 growth inhibitors, dose response, SYBR Green, cherry-picked samples (AID 1159567); format: functional, cell-based
[25] = P. falciparum Dd2 blood-stage growth inhibition, dose response, SYBR Green fluorescence, erythrocytes, dry powder, set 2 (AID 1159574); format: functional, cell-based
[26] = P. falciparum Dd2 growth inhibitors, dose response, SYBR Green, dry powder samples (AID 1159566); format: functional, cell-based;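 note: potency for growth inhibition with lower SYBR green DNA signal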
[27] = P. falciparum ATP4 D1247Y mutant growth inhibitors, dose response, NITD609-resistant line, SYBR Green, dry powder (AID 1159571); format: functional, cell-based;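 note: parasites synchronized at ring stage by sorbitol before testing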
[28] = HepG2 cell cytotoxicity, dose response, cytotoxicity control, cherry-picked samples (AID 1159577); format: functional, cell-based
[29] = biological target: G-protein coupled receptor 183 (Homo sapiens, UniProt P32249); assay: SAR confirmation of small molecule antagonists of the EBI2 receptor via a luminescent beta-arrestin assa.; format: functional
Sequence of G-protein coupled receptor 183 (P32249 whole entry): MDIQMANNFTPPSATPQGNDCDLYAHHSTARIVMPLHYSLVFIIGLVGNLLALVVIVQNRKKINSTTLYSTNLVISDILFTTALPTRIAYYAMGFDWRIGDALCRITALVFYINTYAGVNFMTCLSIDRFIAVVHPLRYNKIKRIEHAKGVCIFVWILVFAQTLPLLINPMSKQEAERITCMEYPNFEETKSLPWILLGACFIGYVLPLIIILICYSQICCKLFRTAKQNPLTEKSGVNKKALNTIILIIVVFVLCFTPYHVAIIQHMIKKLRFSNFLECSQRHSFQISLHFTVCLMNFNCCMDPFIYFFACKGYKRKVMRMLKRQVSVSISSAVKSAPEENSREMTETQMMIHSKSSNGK

Sequence of Induced myeloid leukemia cell differentiation protein Mcl-1 (Q07820 whole entry): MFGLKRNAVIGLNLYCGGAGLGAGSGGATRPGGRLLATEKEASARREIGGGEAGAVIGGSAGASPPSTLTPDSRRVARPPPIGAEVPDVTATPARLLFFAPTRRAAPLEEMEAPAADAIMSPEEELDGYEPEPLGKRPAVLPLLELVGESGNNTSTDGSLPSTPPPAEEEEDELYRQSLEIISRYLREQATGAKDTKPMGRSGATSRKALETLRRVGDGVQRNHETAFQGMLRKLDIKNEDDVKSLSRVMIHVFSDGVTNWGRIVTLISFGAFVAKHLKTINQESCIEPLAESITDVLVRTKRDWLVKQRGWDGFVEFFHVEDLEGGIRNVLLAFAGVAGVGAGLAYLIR

Structure (SMILES): COc1ccc2c3c(cccc13)N(C)N=C2C
IC50 [1]: 1.33 µM (active) | IC50 [2]: > 66 µM (inactive) | IC50 [3]: > 66 µM (inactive) | IC50 [4]: 34.4 µM (active) | IC50 [5]: > 20 µM (inactive) | IC50 [6]: 36.6 µM (active)

IC50 [7]: > 50 µM (not active)
Structure (SMILES): Cc1cc(-c2ccccc2)nc(Oc2ccc(C(C)(C)C)cc2)c1S(C)(=O)=O
CC50 [8]: > 40 µM (active)

Structure (SMILES): CCOC(=O)c1cnc2c(ccc3ccccc32)c1NCCCN(C)C
CC50 [9]: > 100 µM (active) | IC50 [10]: > 67.5 µM (inactive) | IC50 [11]: > 67.5 µM (inactive) | AC50 [12]: 3.38 µM (active) | AC50 [13]: 1.38 µM (active) | IC50 [14]: 35.7 µM (inactive)

IC50 [15]: 15 µM (active) | IC50 [16]: 35.8 µM (inactive)
Structure (SMILES): CC(C)Nc1nc(-c2ccccc2)nc2ccccc12

Structure (SMILES): CCCCCCCCCCCCCCNCCO
IC50 [17]: > 20 µM (inactive) | IC50 [18]: 13.6 µM (inactive)

AC50 [19]: 15.3 µM (active)
Structure (SMILES): CC(C)C[C@H](NS(=O)(=O)c1ccc(F)cc1F)C(=O)N1CCC[C@H]1C(=O)NCc1ccccc1

AC50 [20]: > 30 µM (inactive)
Structure (SMILES): O=C(O)CCNc1ncnc2ccccc12

Structure (SMILES): O=C(NCCN1CCC2(CC1)C(=O)NCN2Cc1ccccc1F)c1ccc2ccccc2c1
IC50 [21]: 0.2 µM (active) | IC50 [22]: 4.59 µM (active)

Structure (SMILES): O=C(c1ccccc1F)N1CC(=O)N2[C@H](C1)[C@@H](c1ccc(-c3cccnc3)cc1)[C@@H]2CO
AC50 [23]: 0.0369 µM (active) | AC50 [24]: < 0.3 µM (active) | AC50 [25]: 0.0331 µM (active) | AC50 [26]: 0.00824 µM (active) | AC50 [27]: 0.0146 µM (active)

Structure (SMILES): N#C[C@@H]1[C@H](c2ccc(C#Cc3ccccc3F)cc2)[C@H](CO)N1C(=O)C1CCCC1
AC50 [24]: 3.48 µM (active) | AC50 [28]: > 39 µM (inactive)

IC50 [29]: 0.00548 µM (active)
Structure (SMILES): O=C(/C=C/c1ccc(F)cc1)N1CCN(S(=O)(=O)c2ccc(Cl)cc2)CC1
